According to patent publication US5550128A, “Enantiomers of gamma methylene 10-deaza aminopterin and process for preparing the same” (priority 1994, dated 1996):
pIC50: −log10 of the molar value.

Columns and labels:
[1] = system: human tumor cell lines in culture; assay: Human Tumor Disease Oriented in vitro screen, panel as a whole; assay type: cell-based; conditions: relative to methotrexate, or enantiomer comparison
Protocol: Further, by analogy to methotrexate (rheumatrex) L-MDAM should be useful in the treatment of autoimmune diseases such as rheumatoid arthritis and inflammatory diseases such as asthma.
A 48 h continuous drug exposure protocol was used combined with an SR13
protein assay to estimate cell growth or viability.

L1210 leukemia = conditions: animals bearing L1210 leukemia; cited from earlier work
P388 leukemia = conditions: animals bearing P388 leukemia; cited from earlier work
[2] = animals; relative to MTX; cited from earlier work
[3] = system: Human HCT-8 Ileocecal Xenograft; assay: Antitumor activity by I.V. push, daily × 5, against human HCT-8 ileocecal xenograft; conditions: for CR: Complete Regression / MIR: Maximum inhibitory rate / PR: Partial Regression / TD: Tumor doubling time: i.v. push daily × 5
Description: [M. G. Nair and Ann Abraham, U.S. Pat. No. 4,996,207 (1991); M. G. Nair, U.S. Pat. No. 5,073,554 (1991 )]. […] [Ann Abraham, M. G. Nair, et al. Advanced in Exp. Med. and Biol. 663-666 (1993)].
MIR: Maximum inhibitory rate. TD: Tumor doubling time.
CR: Complete Regression. PR Partial Regression.
(§1) MWL: Maximum Weight Loss.

[4] = system: Human HCT-8 Ileocecal Xenograft; assay: Antitumor activity by continuous i.v. infusion (C.I.) × 5d against human HCT-8 ileocecal xenograft; assay type: in vivo, human (xenograft in nude mice); conditions: C.I. × 5d
Description: Antitumor Activity of MDAM by C.I. × 5d
against HUMAN HCT-8 Ileocecal Xenograft
MIR: Maximum inhibitory rate.
TD: Tumor doubling time.
CR: Complete Regression.
PR: Partial Regression.
as §1

[5] = biological target: T1, Recombinant Human Dihydrofolate Reductase (Homo sapiens, UniProt P00374); assay: Inhibition of recombinant human dihydrofolate reductase, spectrophotometric enzyme assay; assay type: biochemical
T1 sequence (P00374 1-187): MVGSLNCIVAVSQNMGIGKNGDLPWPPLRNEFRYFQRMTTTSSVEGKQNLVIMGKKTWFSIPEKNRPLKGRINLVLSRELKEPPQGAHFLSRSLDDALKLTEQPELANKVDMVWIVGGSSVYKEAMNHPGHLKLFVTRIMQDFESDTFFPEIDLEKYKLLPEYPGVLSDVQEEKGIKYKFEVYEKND
Protocol: Enzyme assay was performed spectrophotometrically in a solution containin
50 μM dihydrofolate, 80 μM NADPH, 0.05 M Tris HCl. 0.01 M
2mercaptoethanol and 0.001 M EDTA at pH 7.4 at 30°. The reaction
Pure human recombinant enzyme was used.

H35 hepatoma cells = assay: Growth inhibition of H35 hepatoma cells in culture; assay type: cell-based; conditions: H35 hepatoma cells in culture, identical conditions; read-out: l50 value for growth inhibition (Gl50)
Protocol: (§2) Independent, further evidences to the identity of L-MDAM as the biologically active enantiomer of the racemic mixture of D,L-MDAM (previously described as MDAM; Ref, U.S. Pat. No. 4,996,207) was obtained by the following data. […] The cytotoxicity of L-MDAM versus D,L-MDAM was also compared. […] The l50 value for growth inhibition (Gl50) was 39 nM for D,L-MDAM. […] Taken together, these unexpected and novel results establish that the biologically active compound present in the racemic mixture of MDAM is the L-enantiomer described in claim number 1.

[6] = system: transport of radiolabeled folinic acid to H35 hepatoma cells; assay: Inhibition of transport of radiolabeled folinic acid to H35 hepatoma cells; assay type: cell-based; conditions: H35 hepatoma cells; read-out: l50 value, inhibition of transport of radiolabeled folinic acid
Protocol: as §2

[7] = single iv push daily for 5 days at the maximum tolerated dose, nude mice

In the case of `C=C(CC(NC(=O)c1ccc(CCc2cnc3nc(N)nc(N)c3n2)cc1)C(=O)O)C(=O)O` (racemic) [D,L-MDAM, γ-methylene-10-deazaaminopterin], the “activity/potency in inhibiting growth of human tumor cell lines (in words)” value [1] is listed as “more potent activity relative to methotrexate in several tumor cell lines”, the “activity/potency in inhibiting growth of human tumor cell lines (in words)” value ([1]; listed as MDAM) is listed as “equivalent or greater potency than methotrexate” and the “in vivo antitumor activity relative to MTX” value (L1210 leukemia) is listed as “superior in vivo antitumor activity relative to the polyglutamylatable MTX”. For the same compound, the “in vivo antitumor activity relative to MTX” value (P388 leukemia) was “superior in vivo antitumor activity relative to the polyglutamylatable MTX”, the tolerability [2] was “tolerated by animals at higher doses” and the “CR: Complete Regression” value ([3]; 30 mg/kg) was 0%. The “MIR: Maximum inhibitory rate” value ([3]; 30 mg/kg) was 58.8 ± 9.2%, the “PR: Partial Regression” value ([3]; 30 mg/kg) was 0% and the “TD: Tumor doubling time” value ([3]; 30 mg/kg) was 6.2 ± 0.9 days. For the same compound, the “CR: Complete Regression” value ([3]; 40 mg/kg) was 25%, the “MIR: Maximum inhibitory rate” value ([3]; 40 mg/kg) was 79.2 ± 7.5% and the “PR: Partial Regression” value ([3]; 40 mg/kg) was 25%. The “TD: Tumor doubling time” value ([3]; 40 mg/kg) was 7.1 ± 0.5 days, the “CR: Complete Regression” value ([3]; 50 mg/kg) was 25% and the “MIR: Maximum inhibitory rate” value ([3]; 50 mg/kg) was 79.2 ± 6.2%. For the same compound, the “PR: Partial Regression” value ([3]; 50 mg/kg) was 50%, the “TD: Tumor doubling time” value ([3]; 50 mg/kg) was 8.4 ± 0.4 days and the antitumor response [3, 7] was 75%. For the same compound, the complete tumor regression [3, 7] was 25%, the “CR: Complete Regression” value ([4]; 0.5 mg/kg) was 0% and the “MIR: Maximum inhibitory rate” value ([4]; 0.5 mg/kg) was 49.8 ± 8.2%. The “PR: Partial Regression” value ([4]; 0.5 mg/kg) was 0%, the “TD: Tumor doubling time” value ([4]; 0.5 mg/kg) was 5.3 ± 0.9 days and the “CR: Complete Regression” value ([4]; 1 mg/kg) was 0%. The “MIR: Maximum inhibitory rate” value ([4]; 1 mg/kg) was 56.4 ± 7.8%, the “PR: Partial Regression” value ([4]; 1 mg/kg) was 0% and the “TD: Tumor doubling time” value ([4]; 1 mg/kg) was 6.0 ± 0.7 days. For the same compound, the “CR: Complete Regression” value ([4]; 2 mg/kg(/day)) was 38%, the “PR: Partial Regression” value ([4]; 2 mg/kg(/day)) was 38% and the “MIR: Maximum inhibitory rate” value ([4]; 2 mg/kg) was 81.7 ± 7.2%. For the same compound, the “TD: Tumor doubling time” value ([4]; 2 mg/kg) was 12.4 ± 5.8 days, the pIC50 ([5]; 50 μM dihydrofolate, 80 μM NADPH, pH 7.4, 30°) was 7.36 and the “IC50 Compound/IC50 MTX” value ([5]; ratio to MTX) was 2.58. It also gave a pIC50 (H35 hepatoma cells) of 7.41 and a pIC50 [6] of 5.26.
